From patent US6624149B2, “Method for nucleic acid transfection of cells” (Genteric, Inc., priority 2000, dated 2003)
Where “and” joins values, the source holds several entries; their conditions need not be identical. Equal values may be shown once.

System: NIH 3T3 cells
Test: Cationic liposome-mediated transfection of cultured cells, luciferase assay
Assay type: cell-based, murine
Conditions: for Luciferase activity, Average / Luciferase activity, Trial 1 to Trial 4: 48 hours; for Luciferase activity, Trial 1 to Trial 4: individual trials
Method: In one embodiment, an appropriate mass of cationic lipid and the neutral lipid dioleoylphosphatidylethanolamine (DOPE) was added as solutions in chloroform to 1.9 mL sample vials to yield the desired molar ratio of cationic lipid:DOPE. The chloroform was removed via rotary evaporation at 37° C. The resulting thin lipid films were placed under vacuum overnight to insure that all traces of solvent have been removed. The lipid mixture was resuspended in 1 mL sterile water at 25° C. until the film is hydrated, and then vortex mixed to afford an emulsion. For the in vitro experiments, these emulsions were formulated as a cationic lipid concentration of 1 mM. For the in vivo experiments, the emulsions were formulated at a cationic lipid concentration of 3 mM.
NIH 3T3 cells were obtained from ATCC (CRL 1658), cultured in Dulbecco's Modified Eagle's Medium with ten percent calf serum, and plated on standard 24 well tissue culture plates 24 hours prior to transfection. Cells were approximately eighty percent confluent at the time of transfection.
NIH 3T3 cells were plated onto 24 well tissue culture plates as described in section 6.1.10. The growth media was removed via aspiration and the cells were washed once with 0.5 mL PBS/well. The liposome/transition metal/nucleic acid solutions were formed through sequential addition of appropriate amounts of DMEM (without serum), the liposome solution (1:1 N,N-[Bis(2-hydroxyethyl)]-N-methyl-N-[2,3-bis(tetradecanoyloxy)propyl] ammonium chloride (DMDHP):DOPE, zinc chloride, and the plasmid DNA pCMV.FOX.Luc.2. The amount of liposome solution used depended on the desired cationic lipid to DNA phosphate ratio. The addition of these substances was followed by thorough vortex mixing and incubation for 15 minutes at room temperature. A 200 microliter aliquot of the resultant transfection complex was added to each well (1 microgram DNA/well, n=4) and the cells were incubated for 4 hours, at 37° C. At this time, 500 microliters of DMEM+10% calf serum/well was added and the cells cultured for approximately 48 hours prior to lysis and analysis. The sample transfections were subsequently repeated a minimum of three times prior to lysis and analysis.
The presently claimed invention describes a new method using a combination of cationic lipid, transition metal enhancer and a nucleic acid of interest for gene delivery. The present invention provides a method that may enhance gene expression by improving the efficiency of gene delivery. This change in gene expression can be quantitated using various assays, such as the luciferase assay. de Wet et al., Molec. Cell Biol. 7:725, 1987. In in vitro experiments described herein in which a cationic lipid/transition metal enhancer/nucleic acid complex was used, the cells were lysed, using a lysis buffer, 48 hours post administration of the pCMV.FOX.Luc-2 containing solution. The lysis buffer contained 100 mM K2PO4 pH 7.0, 1 mM dithiothreitol, and 1% Triton X-100. A 25 μl aliquot of the lysate was analyzed for luciferase activity (de Wet et al., Molec. Cell Biol. 7:725, 1987) using a Monolight 2010 luminometer (Analytical Luminescence Laboratories). Accordingly, luciferase light emissions from each aliquot of the lysis homogenate were measured over a ten second period. Activity was expressed as relative light units, values collectively representing the assay conditions, luciferase concentration, luminometer photomultiplier tube sensitivity and background. Using well known techniques, the luciferase light units may be converted, for example, to picograms of luciferase protein. See, e.g., Felgner et al., U.S. Pat. No. 5,580,899 at Example 13.
To perform this study, cationic lipid/nucleic acid/zinc mixtures were prepared by mixing appropriate amounts of serum-free DMEM, cationic liposomes, zinc chloride and pCMV.FOX.Luc.2 plasmid DNA in a polystyrene tube. […]

[1] = charge ratio 0.5, ZnCl2 1000 μM
[2] = charge ratio 0.75, ZnCl2 0.1 μM
[3] = charge ratio 0.75, ZnCl2 100 μM
[4] = charge ratio 0.75, ZnCl2 1000 μM

[Cl-].[Cl-].[Zn+2] [ZnCl2, zinc chloride] was tested, and the “Luciferase activity, Average” value (charge ratio 0.5, ZnCl2 0.1 μM) was 357320 relative light units, the “Luciferase activity, Average” value (charge ratio 0.5, ZnCl2 1 μM) was 289649.8 relative light units and the “Luciferase activity, Average” value (charge ratio 0.5, ZnCl2 10 μM) was 296498.3 relative light units. The “Luciferase activity, Average” value (charge ratio 0.5, ZnCl2 100 μM) was 690512.3 relative light units, the “Luciferase activity, Average” value [1] was 44053.75 relative light units and the “Luciferase activity, Average” value [2] was 528118.8 relative light units. The “Luciferase activity, Average” value (charge ratio 0.75, ZnCl2 1 μM) was 141950 relative light units, the “Luciferase activity, Average” value (charge ratio 0.75, ZnCl2 10 μM) was 397689.3 relative light units and the “Luciferase activity, Average” value [3] was 334007.5 relative light units. The “Luciferase activity, Average” value [4] was 298625.5 relative light units, the “Luciferase activity, Average” value (charge ratio 1, ZnCl2 0.1 μM) was 931446.8 relative light units and the “Luciferase activity, Average” value (charge ratio 1, ZnCl2 1 μM) was 835699.8 relative light units. For the same molecule, the “Luciferase activity, Average” value (charge ratio 1, ZnCl2 10 μM) was 1366067 relative light units, the “Luciferase activity, Average” value (charge ratio 1, ZnCl2 100 μM) was 359188.5 relative light units and the “Luciferase activity, Average” value (charge ratio 1, ZnCl2 1000 μM) was 414392 relative light units. The “Luciferase activity, Average” value (charge ratio 2, ZnCl2 0.1 μM) was 677663.5 relative light units, the “Luciferase activity, Average” value (charge ratio 2, ZnCl2 1 μM) was 747069.5 relative light units and the “Luciferase activity, Average” value (charge ratio 2, ZnCl2 10 μM) was 1215879 relative light units. For the same molecule, the “Luciferase activity, Average” value (charge ratio 2, ZnCl2 100 μM) was 827479.8 relative light units, the “Luciferase activity, Average” value (charge ratio 2, ZnCl2 1000 μM) was 109543.8 relative light units and the “enhancement of in vitro transfection by added zinc” value (depending on the cationic lipid to nucleic acid charge ratio) was “two to forty”. The “Luciferase activity, Trial 1 to Trial 4” value (charge ratio 0.5, ZnCl2 0.1 μM) was 487868 relative light units and 426369 relative light units and 256897 relative light units and 258146 relative light units, the “Luciferase activity, Trial 1 to Trial 4” value (charge ratio 0.5, ZnCl2 1 μM) was 385049 relative light units and 200471 relative light units and 304108 relative light units and 268971 relative light units and the “Luciferase activity, Trial 1 to Trial 4” value (charge ratio 0.5, ZnCl2 10 μM) was 325001 relative light units and 323001 relative light units and 250110 relative light units and 287881 relative light units. The “Luciferase activity, Trial 1 to Trial 4” value (charge ratio 0.5, ZnCl2 100 μM) was 351939 relative light units and 252969 relative light units and 294018 relative light units and 1863123 relative light units, the “Luciferase activity, Trial 1 to Trial 4” value [1] was 43835 relative light units and 40236 relative light units and 59395 relative light units and 32749 relative light units and the “Luciferase activity, Trial 1 to Trial 4” value [2] was 613179 relative light units and 556656 relative light units and 437658 relative light units and 504982 relative light units. For the same molecule, the “Luciferase activity, Trial 1 to Trial 4” value (charge ratio 0.75, ZnCl2 1 μM) was 127339 relative light units and 236302 relative light units and 123913 relative light units and 80246 relative light units, the “Luciferase activity, Trial 1 to Trial 4” value (charge ratio 0.75, ZnCl2 10 μM) was 455299 relative light units and 465986 relative light units and 362168 relative light units and 307304 relative light units and the “Luciferase activity, Trial 1 to Trial 4” value [3] was 404983 relative light units and 351094 relative light units and 358591 relative light units and 221362 relative light units. For the same molecule, the “Luciferase activity, Trial 1 to Trial 4” value [4] was 335343 relative light units and 257292 relative light units and 374511 relative light units and 227356 relative light units, the “Luciferase activity, Trial 1 to Trial 4” value (charge ratio 1, ZnCl2 0.1 μM) was 901184 relative light units and 862221 relative light units and 1113520 relative light units and 848862 relative light units and the “Luciferase activity, Trial 1 to Trial 4” value (charge ratio 1, ZnCl2 1 μM) was 942667 relative light units and 864670 relative light units and 799992 relative light units and 735470 relative light units. The “Luciferase activity, Trial 1 to Trial 4” value (charge ratio 1, ZnCl2 10 μM) was 2145687 relative light units and 1433861 relative light units and 1202748 relative light units and 681970 relative light units, the “Luciferase activity, Trial 1 to Trial 4” value (charge ratio 1, ZnCl2 100 μM) was 262768 relative light units and 379927 relative light units and 447492 relative light units and 346567 relative light units and the “Luciferase activity, Trial 1 to Trial 4” value (charge ratio 1, ZnCl2 1000 μM) was 437998 relative light units and 443459 relative light units and 502263 relative light units and 273848 relative light units. For the same molecule, the “Luciferase activity, Trial 1 to Trial 4” value (charge ratio 2, ZnCl2 0.1 μM) was 596911 relative light units and 685311 relative light units and 818392 relative light units and 610040 relative light units, the “Luciferase activity, Trial 1 to Trial 4” value (charge ratio 2, ZnCl2 1 μM) was 661803 relative light units and 814409 relative light units and 754168 relative light units and 757898 relative light units and the “Luciferase activity, Trial 1 to Trial 4” value (charge ratio 2, ZnCl2 10 μM) was 1498720 relative light units and 1238992 relative light units and 1207690 relative light units and 918114 relative light units. For the same molecule, the “Luciferase activity, Trial 1 to Trial 4” value (charge ratio 2, ZnCl2 100 μM) was 768327 relative light units and 880621 relative light units and 941720 relative light units and 719251 relative light units and the “Luciferase activity, Trial 1 to Trial 4” value (charge ratio 2, ZnCl2 1000 μM) was 199493 relative light units and 48657 relative light units and 189902 relative light units and 123 relative light units.
